“Also recorded” adds a separate entry of the source.
Experiments:
[1] = Energy/Fatigue Scale, randomized placebo-controlled pilot clinical study (Study 1); format: in vivo, human; conditions: for Mental Energy / Perceived Fatigue: possible scores 5-30; for General Energy / Motivation: possible scores 6-36; for Physical Energy: possible scores 7-42; for Emotional Energy: possible scores 8-48
Method: (§1) The present randomized, double-blinded, placebo-controlled, pilot clinical study was initiated with the primary aim of investigating the safety, tolerability, and the blood NAD+-boosting efficacy of an acute, single dose of NR IV (500 mg, test), NAD+ IV (500 mg, active comparator), oral NR (500 mg, bridge), and saline IV (placebo control) in generally healthy adult participants. The study consisted of two parts; data from 37 and 16 participants in the first and second phases, respectively, were analyzed.
(§2) This was a 2-part study. The first study was a 4-arm randomized, placebo-controlled parallel trial. The 3 IV arms were double-blinded, while the 4th arm involved oral administration making it naturally unblinded. Participants were randomized at a 10:10:10:6 ratio to intravenous placebo (saline), NAD^+, NR, or oral NR (oral). The second study was a randomized parallel design trial with two arms for the purpose of evaluating the actual differences in infusion rates in real time. Participants were randomized at a 1:1 ratio to intravenous NR or NAD^+.
(§3) Vials of 50 mg/ml of NR or NAD+ were prepared in 10 ml of sterile water by DCA Pharmacy (Franklin, Tennessee) by prescription, for research administration only, and maintained in refrigerated conditions until use. For participants who were randomized to the test group or to the active comparator group, the NR or NAD+ was added to 500 ml of normal saline (B Braun 0.9% sodium chloride injection USP, preservative free) prior to intravenous administration. Those randomly assigned to the saline group received 500 ml of normal saline. Participants that were randomly assigned to the oral arm were provided with 500 mg of NR which was taken with water.
(§4) To assess vital signs and subdomains on the sleep and energy scales, between-groups comparisons were assessed using analysis of covariance (ANCOVA) with baseline scores as the covariate and a Bonferroni correction. Levene's test was used to check and confirm the assumption of homogeneity of variances.
(§5) Tables A-D below reflect mean scores for each group at days 7 and 14. An ANCOVA was used to identify statistical significant differences, using baseline scores as the covariate which helps to account for the natural variation in psychological measurements, increasing the power of the study.
It is noted that the energy scale measures disruptions to energy levels; lower scores reflect greater levels of energy.

[2] = Sleep Scale, pilot clinical study (Study 1); format: in vivo, human; conditions: for Sleep Maintenance: possible scores 3-18; for Sleep Latency: possible scores 4-24; for Cognitive Effects / Daytime Sleepiness / Emotional Effects / Productivity / Sleep Inertia: possible scores 5-30
Method: as §1, §2, §3, §4, §5
For the sleep scale, the greatest improvements were seen on the scale of sleep latency, which refers to the ability to fall asleep at night, and sleep-related cognitive effects.

[3] = Vital signs post-intervention (Study 1); format: in vivo, human; conditions: single 500 mg dose, mean (SD)
Method: as §1
(§6) The safety of the IV infusion was evaluated using a combination of endpoints, including tolerable infusion rate, total number of adverse effects, participant vital signs, a complete blood count (CBC), a comprehensive metabolic panel (CMP), glucose and insulin levels, and the participant's self-reported subjective experience.
as §4
For the first study, data from 37 patients were available for intent to treat analysis; for the second study, data from 16 patients were available for intent to treat analysis.

[4] = Tolerable infusion rate / infusion duration, Study 1; format: in vivo, human; conditions: 500 mg in 500 ml saline, start 20 drops per minute for 15 minutes, then rate by participant comfort, mean ± SD
Method: as §3
(§7) In the first study, participants began the infusion at a rate of 20 drops per minute for the first 15 minutes to ensure safety and comfort. […] Participants were closely monitored for the duration of the infusion, and the infusion rate was decreased, as applicable, upon participant request.
(§8) Additional analyses were conducted using GraphPad Prism (Ver. 10.0.2). Statistical significance was determined as p<0.05, with comparisons of the test articles compared to saline or between group comparisons. […] Time in chair was analyzed for study 1 by a one-way ANOVA with multiple comparisons, study 2 was analyzed by unpaired t-test. The baseline variable of age was analyzed for differences by one way ANOVA with multiple comparisons for study.

[5] = Tolerable infusion rate / infusion duration, Study 2 (IV line fully open); format: in vivo, human; conditions: males, rate decreased on request, mean (SD)
Excerpt: as §2, with “NAD^+. […]” for “NAD^+.”
as §7, §8

[6] = Patient subjective experience and adverse event monitoring; format: in vivo, human
Method: as §6
Adverse event monitoring began on the first day of the study and continued for 14 days (study one) or 7 days (study two). Participants were instructed to notify the research staff of any new or unusual symptoms during the trial and open-ended questions during data collection solicited unexpected side effects.

[7] = Clinical chemistry (comprehensive metabolic panel); format: in vivo, human
Method: as §6
(§9) Between-groups comparisons of each outcome measured in the […] and CMP were evaluated using mixed between-within subjects ANOVA with the timepoint being the within subjects' factor and the group assignment as the between subjects factor. Mauchly's test of sphericity was used to confirm assumptions. Violations of the assumption of sphericity are addressed with the Greenhouse-Geisser correction.
(§10) Additional analyses were conducted using GraphPad Prism (Ver. 10.0.2). Statistical significance was determined as p<0.05, with comparisons of the test articles compared to saline or between group comparisons. 2way ANOVA with Tukey's multiple comparisons test with a single pooled variance was used to determine significance in hematology, clinical chemistry, and vitals. Time in chair was analyzed for study 1 by a one-way ANOVA with multiple comparisons, study 2 was analyzed by unpaired t-test. The baseline variable of age was analyzed for differences by one way ANOVA with multiple comparisons for study.

[8] = Hematology (complete blood count); format: in vivo, human; conditions: for mean corpuscular volume (MCV): in fL (unit assumed); for elevations in white blood cells and neutrophils: baseline to three-hours post-infusion
Method: as §6, §9, §10

whole blood NAD+ = assay: NAD+ analysis of dried blood spots (DBS) by LC/MS; format: in vivo, human; design: Mean NAD: unit not given here; conditions: for Mean NAD: dried blood spot
Method: Finger punctures were conducted using a lancet. Blood was then applied to the circles on the dried blood spot (DBS) card and allowed to dry for a minimum of 3 hours. […] See, for example, FIG. 3. The use of dried blood spots (DBS) allowed for the analysis of NAD+ levels based upon samples that could be prepared at the clinic or by the study participants from home. While 36 of 37 participants in study 1 utilized the DBS at all time points, not all samples were analyzable. […] However, the model was significant for the 3-hour timepoint (p=0.010; […] At 6 hours, near-significant differences were observed between the NAD+ and NR IV group (t=1.99, p=0.055), and significant differences were observed between the NR IV and saline groups (t=−2.80, p=0.009), and between the NR IV and oral NR groups (t=−2.59, p=0.015). See, Tables 3-9 below. Tables 3-9 below reflect mean/SD for each group at each of the 7 timepoints. A basic ANOVA was conducted to investigate the data.

blood NAD+ = conditions: cited from earlier work
[9] = Energy/Fatigue Scale Day 7, mean score, lower = greater energy
[10] = Energy/Fatigue Scale Day 7, mean score, lower scores = greater energy, single 500 mg dose
[11] = Energy/Fatigue Scale Day 14, mean score, lower = greater energy
[12] = 3 hours post infusion, mean ± SD
[13] = Immediately Post-Intervention (10 minutes after infusion)

For `NC(=O)c1ccc[n+]([C@@H]2O[C@H](COP(=O)([O-])OP(=O)(O)OC[C@H]3O[C@@H](n4cnc5c(N)ncnc54)[C@H](O)[C@@H]3O)[C@@H](O)[C@H]2O)c1` [NAD+ IV, Nicotinamide Adenine Dinucleotide], the “Mental Energy” value [1, 9] was 13.13, the “Perceived Fatigue” value [1, 9] was 15.75 and the “General Energy” value [1, 9] was 20.63. For the same compound, the Motivation [1, 9] was 11.13, the “Physical Energy” value [1, 10] was 19.63 and the “Emotional Energy” value [1, 9] was 31.75. The “Mental Energy” value [1, 11] was 14.50, the “Perceived Fatigue” value [1, 11] was 15.50 and the “General Energy” value [1, 11] was 20.13. The Motivation [1, 11] was 13.50, the “Physical Energy” value [1, 11] was 18.50 and the “Emotional Energy” value [1, 11] was 29.63. The “Sleep Maintenance” value ([2]; Sleep Scale Day 7, mean score) was 8.88, the “Sleep Latency” value ([2]; Sleep Scale Day 7, mean score) was 11.63 and the “Cognitive Effects” value ([2]; Sleep Scale Day 7, mean score) was 15.50. For the same compound, the “Daytime Sleepiness” value ([2]; Sleep Scale Day 7, mean score) was 17.63, the “Emotional Effects” value ([2]; Sleep Scale Day 7, mean score) was 15.75 and the Productivity ([2]; Sleep Scale Day 7, mean score) was 13.86. For the same compound, the “Sleep Inertia” value ([2]; Sleep Scale Day 7, mean score) was 17.38, the “Sleep Maintenance” value ([2]; Sleep Scale Day 14, mean score) was 8.25 and the “Sleep Latency” value ([2]; Sleep Scale Day 14, mean score) was 10.75. The “Cognitive Effects” value ([2]; Sleep Scale Day 14, mean score) was 15.63, the “Daytime Sleepiness” value ([2]; Sleep Scale Day 14, mean score) was 16.88 and the “Emotional Effects” value ([2]; Sleep Scale Day 14, mean score) was 16.38. The Productivity ([2]; Sleep Scale Day 14, mean score) was 13.25, the “Sleep Inertia” value ([2]; Sleep Scale Day 14, mean score) was 16.00 and the “Post-intervention diastolic blood pressure” value [3] was 73.40 (SD: 13.15) mmHg. For the same compound, the Post-intervention heart rate [3] was 68.40 (SD: 8.10) beats per minute, the “Post-intervention systolic blood pressure” value [3] was 117.20 (SD: 14.54) mmHg and the “infusion intake, average” value [4] was 182.9 ± 55.93 min. The “average infusion rate (total infusion time)” value [5] was 98.88 (SD: 46.70) minutes, the “comfort level described by majority of patients” value ([6]; during IV infusion) was “low” and the “patients having a bowel movement during the IV” value ([6]; fraction of patients, nursing staff report) was “Approximately half”. The “sensations / adverse experiences reported during infusion” value ([6]; patient self-report, 500 mg IV) was “anxiety, headaches, nausea, and sudden urges to have a bowel movement or diarrhea; also recorded: nausea, headache, diarrhea, and muscle tightness”, the “significant differences in bilirubin and AST (indicators of liver function)” value ([7]; 3- and 24-hour timepoints) was “not detected” and the “change in globulin from baseline to 24 hours post infusion” value ([7]; Study 1, mean ± SD) was 0.1300±0.1829. For the same compound, the “estimated glomerular filtration rate change from baseline to 3 hours post infusion” value ([7]; Study 1, mean ± SD, not deemed clinically significant) was 1.400±8.462, the “White blood cell count” value [8, 12] was 6.990±2.386 Thousand/microliter and the absolute neutrophils [8, 12] was 4724±2159 Cells/microliter. For the same compound, the “mean corpuscular volume (MCV)” value [8, 12] was 87.38±3.991, the “mean corpuscular volume (MCV)” value ([8]; 24 hours post infusion, mean ± SD) was 87.34±3.035 and the “elevations in white blood cells and neutrophils” value [8] was “clinically significant elevations in white blood cells and increases in absolute and percentage neutrophils”. For the same compound, the “mean corpuscular volume (MCV)” value ([8]; baseline, mean ± SD) was 88.43±3.772, the “effect on whole blood NAD+” value (whole blood NAD+; NR IV: at 3 hours relative to placebo and NAD+ IV, NAD+ IV: within 24 hours) was “did not significantly elevate” and the “increase in whole blood NAD+ relative to baseline” value (whole blood NAD+; at 24 hours) was 2%. For the same compound, the “Mean NAD” value (whole blood NAD+; 3 Hours Post-Intervention) was 19.20, the “Mean NAD” value (whole blood NAD+; 6 Hours Post-Intervention) was 18.88 and the “Mean NAD” value (whole blood NAD+; 24 Hours Post-Intervention) was 19.73. The “Mean NAD” value (whole blood NAD+; Baseline Scores) was 19.27 and the “Mean NAD” value (whole blood NAD+; [13]) was 19.16.
In the case of `NC(=O)c1ccc[n+]([C@@H]2O[C@H](COP(=O)([O-])O)[C@@H](O)[C@H]2O)c1` [NMN, Nicotinamide mononucleotide], the safety and tolerability (blood NAD+; 300 mg in 100 mL saline, 5 mL/min IV, 10 healthy Japanese adults (Kimura et al.)) is given as “safe and well-tolerated” and the “blood NAD+ levels” value (blood NAD+; intravenous NMN (Kimura et al.)) is given as “elevated blood NAD+ levels at multiple timepoints relative to baseline”.
In the case of `NC(=O)c1ccc[n+]([C@@H]2O[C@H](CO)[C@@H](O)[C@H]2O)c1.[Cl-]` [oral NR, nicotinamide riboside chloride], the “Mental Energy” value [1, 9] is reported as 14.90, the “Perceived Fatigue” value [1, 9] is reported as 14.10 and the “General Energy” value [1, 9] is reported as 23.20. The Motivation [1, 9] was 12.20, the “Physical Energy” value [1, 10] was 19.80 and the “Emotional Energy” value [1, 9] was 32.50. The “Mental Energy” value [1, 11] was 15.67, the “Perceived Fatigue” value [1, 11] was 16.44 and the “General Energy” value [1, 11] was 23.67. For the same compound, the Motivation [1, 11] was 12.56, the “Physical Energy” value [1, 11] was 20.00 and the “Emotional Energy” value [1, 11] was 32.44. The “Sleep Maintenance” value ([2]; Sleep Scale Day 14, mean score) was 7.50, the “Sleep Latency” value ([2]; Sleep Scale Day 14, mean score) was 10.00 and the “Cognitive Effects” value ([2]; Sleep Scale Day 14, mean score) was 16.36. For the same compound, the “Daytime Sleepiness” value ([2]; Sleep Scale Day 14, mean score) was 15.63, the “Emotional Effects” value ([2]; Sleep Scale Day 14, mean score) was 20.50 and the Productivity ([2]; Sleep Scale Day 14, mean score) was 12.88. For the same compound, the “Sleep Inertia” value ([2]; Sleep Scale Day 14, mean score) was 15.88, the “Post-intervention diastolic blood pressure” value [3] was 71.00 (SD: 6.24) mmHg and the Post-intervention heart rate [3] was 65.78 (SD: 7.95) beats per minute. The “Post-intervention systolic blood pressure” value [3] was 108.56 (SD: 9.08) mmHg, the “safety / attributable adverse events” value ([6]; intervention and follow-up period up to 14 days) was “safe and well tolerated” and the “clinically relevant changes in comprehensive metabolic panel or CBC with differential” value ([7]; Study 1) was “did not display any clinically relevant changes”. The “elevations in white blood cells and neutrophils” value [8] was “not observed”, the “Mean NAD” value (whole blood NAD+; 3 Hours Post-Intervention) was 18.54 and the “Mean NAD” value (whole blood NAD+; 6 Hours Post-Intervention) was 18.01. The “Mean NAD” value (whole blood NAD+; 24 Hours Post-Intervention) was 23.25, the “Mean NAD” value (whole blood NAD+; Baseline Scores) was 18.34 and the “Mean NAD” value (whole blood NAD+; [13]) was 19.16.

Reference: patent US12558367B2, “Nicotinamide riboside and derivatives thereof in intravenous formulations and methods of use thereof” (ChromaDex Inc., priority 2023, dated 2026)
